Measured values taken from patent US7718808B2, “Thiazole derivatives” (Kyowa Hakko Kirin Co., Ltd., priority 2003, dated 2010).

melting point	SMILES
239 to 243 °C	Cc1cncc(C(=O)Nc2nc(-c3ccco3)c(C(=O)C3CCOCC3)s2)c1 [Compound 506, N-[4-(2-Furyl)-5-(tetrahydropyran-4-ylcarbonyl)thiazol-2-yl]-5-methylpyridine-3-carboxamide]
185 to 186 °C	O=C(Nc1nc(-c2ccco2)c(C(=O)C2CCOCC2)s1)c1ccccn1 [Compound 507, N-[4-(2-Furyl)-5-(tetrahydropyran-4-ylcarbonyl)thiazol-2-yl]pyridine-2-carboxamide]
200 to 205 °C	O=C(Nc1nc(-c2ccco2)c(C(=O)C2CCOCC2)s1)c1cnccn1 [Compound 509, N-[4-(2-Furyl)-5-(tetrahydropyran-4-ylcarbonyl)thiazol-2-yl]pyrazine-2-carboxamide]
130 to 131 °C	Cc1cnc(C(=O)Nc2nc(-c3ccco3)c(C(=O)C3CCOCC3)s2)cn1 [Compound 510, N-[4-(2-Furyl)-5-(tetrahydropyran-4-ylcarbonyl)thiazol-2-yl]-5-methylpyrazine-2-carboxamide]
209 to 212 °C	Cc1ccc(C(=O)Nc2nc(-c3ccco3)c(C(=O)C3CCOCC3)s2)o1 [Compound 512, N-[4-(2-Furyl)-5-(tetrahydropyran-4-ylcarbonyl)thiazol-2-yl]-5-methylfuran-2-carboxamide]
236 to 238 °C	O=C(Nc1nc(-c2ccco2)c(C(=O)C2CCOCC2)s1)c1ccoc1 [Compound 516, N-[4-(2-Furyl)-5-(tetrahydropyran-4-ylcarbonyl)thiazol-2-yl]furan-3-carboxamide]
231 to 232 °C	O=C(Nc1nc(-c2ccco2)c(C(=O)C2CCOCC2)s1)c1cccs1 [Compound 517, N-[4-(2-Furyl)-5-(tetrahydropyran-4-ylcarbonyl)thiazol-2-yl]thiophene-2-carboxamide]
227 to 229 °C	O=C(Nc1nc(-c2ccco2)c(C(=O)C2CCOCC2)s1)c1ccsc1 [Compound 518, N-[4-(2-Furyl)-5-(tetrahydropyran-4-ylcarbonyl)thiazol-2-yl]thiophene-3-carboxamide]
243 to 247 °C	Cn1cc(C(=O)Nc2nc(-c3ccco3)c(C(=O)C3CCOCC3)s2)cn1 [Compound 519, N-[4-(2-Furyl)-5-(tetrahydropyran-4-ylcarbonyl)thiazol-2-yl]-1-methylpyrazole-4-carboxamide]
170 to 174 °C	CCn1cc(C(=O)Nc2nc(-c3ccco3)c(C(=O)C3CCOCC3)s2)cn1 [Compound 520, 1-Ethyl-N-[4-(2-furyl)-5-(tetrahydropyran-4-ylcarbonyl)thiazol-2-yl]pyrazole-4-carboxamide]
217 to 220 °C	O=C(Nc1nc(-c2ccco2)c(C(=O)C2CCOCC2)s1)c1cnn(-c2ccccc2)c1 [Compound 521, N-[4-(2-Furyl)-5-(tetrahydropyran-4-ylcarbonyl)thiazol-2-yl]-1-phenylpyrazole-4-carboxamide]
115 to 117 °C	O=C(c1sc(NC(=O)C2CCCO2)nc1-c1ccco1)C1CCOCC1 (stereo not drawn) [Compound 523, N-[4-(2-Furyl)-5-(tetrahydropyran-4-ylcarbonyl)thiazol-2-yl]tetrahydrofuran-2-carboxamide]
164 to 166 °C	O=C(Nc1nc(-c2ccco2)c(C(=O)C2CCOCC2)s1)C1CCOC1 (stereo not drawn) [Compound 524, N-[4-(2-Furyl)-5-(tetrahydropyran-4-ylcarbonyl)thiazol-2-yl]tetrahydrofuran-3-carboxamide]
206 to 209 °C	O=C(CC1CCOCC1)Nc1nc(-c2ccco2)c(C(=O)C2CCOCC2)s1 [Compound 525, N-[4-(2-Furyl)-5-(tetrahydropyran-4-ylcarbonyl)thiazol-2-yl]-2-(tetrahydropyran-4-yl)acetamide]
140 to 142 °C	O=C(Cc1ccccc1)Nc1nc(-c2ccco2)c(C(=O)C2CCOCC2)s1 [Compound 526, N-[4-(2-Furyl)-5-(tetrahydropyran-4-ylcarbonyl)thiazol-2-yl]-2-phenylacetamide]
161 to 164 °C	O=C(CCc1ccccc1)Nc1nc(-c2ccco2)c(C(=O)C2CCOCC2)s1 [Compound 527, N-[4-(2-Furyl)-5-(tetrahydropyran-4-ylcarbonyl)thiazol-2-yl]-3-phenylpropanamide]
253 to 256 °C	O=C(C=Cc1ccccc1)Nc1nc(-c2ccco2)c(C(=O)C2CCOCC2)s1 [Compound 528, N-[4-(2-Furyl)-5-(tetrahydropyran-4-ylcarbonyl)thiazol-2-yl]-3-phenylacrylamide]
148 to 150 °C	O=C(COc1ccccc1)Nc1nc(-c2ccco2)c(C(=O)C2CCOCC2)s1 [Compound 529, N-[4-(2-Furyl)-5-(tetrahydropyran-4-ylcarbonyl)thiazol-2-yl]-2-phenoxyacetamide]
148 to 149 °C	COCC(=O)Nc1nc(-c2ccco2)c(C(=O)C2CCOCC2)s1 [Compound 530, N-[4-(2-Furyl)-5-(tetrahydropyran-4-ylcarbonyl)thiazol-2-yl]-2-methoxyacetamide]
121 to 126 °C	CCOCC(=O)Nc1nc(-c2ccco2)c(C(=O)C2CCOCC2)s1 [Compound 532, 2-Ethoxy-N-[4-(2-furyl)-5-(tetrahydropyran-4-ylcarbonyl)thiazol-2-yl]acetamide]
129 to 130 °C	CN(C)CC(=O)Nc1nc(-c2ccco2)c(C(=O)C2CCOCC2)s1 [Compound 533, 2-(Dimethylamino)-N-[4-(2-furyl)-5-(tetrahydropyran-4-ylcarbonyl)thiazol-2-yl]acetamide]
103 to 105 °C	COCCN(C)CC(=O)Nc1nc(-c2ccco2)c(C(=O)C2CCOCC2)s1 [Compound 534, N-[4-(2-Furyl)-5-(tetrahydropyran-4-ylcarbonyl)thiazol-2-yl]-2-[N-(2-methoxyethyl)-N-methylamino]acetamide]
115 to 117 °C	O=C(CN1CCCC1)Nc1nc(-c2ccco2)c(C(=O)C2CCOCC2)s1 [Compound 536, N-[4-(2-Furyl)-5-(tetrahydropyran-4-ylcarbonyl)thiazol-2-yl]-2-(1-pyrrolidinyl)acetamide]
103 to 104 °C	COC[C@H]1CCCN1CC(=O)Nc1nc(-c2ccco2)c(C(=O)C2CCOCC2)s1 [Compound 537, N-[4-(2-Furyl)-5-(tetrahydropyran-4-ylcarbonyl)thiazol-2-yl]-2-[(2R)-2-(methoxymethyl)pyrrolidin-1-yl]acetamide]
146 to 147 °C	O=C(CN1CCCCC1)Nc1nc(-c2ccco2)c(C(=O)C2CCOCC2)s1 [Compound 542, N-[4-(2-Furyl)-5-(tetrahydropyran-4-ylcarbonyl)thiazol-2-yl]-2-piperidinoacetamide]
178 to 180 °C	O=C(CN1CCC(O)CC1)Nc1nc(-c2ccco2)c(C(=O)C2CCOCC2)s1 [Compound 543, N-[4-(2-Furyl)-5-(tetrahydropyran-4-ylcarbonyl)thiazol-2-yl]-2-(4-hydroxypiperidino)acetamide]
109 to 111 °C	COC1CCN(CC(=O)Nc2nc(-c3ccco3)c(C(=O)C3CCOCC3)s2)CC1 [Compound 545, N-[4-(2-Furyl)-5-(tetrahydropyran-4-ylcarbonyl)thiazol-2-yl]-2-(4-methoxypiperidino)acetamide]
